We go through one compound from patent US11672792B2, “Topical formulations comprising montelukast and combinations with mussel adhesive proteins” (ENLITISA (SHANGHAI) PHARMACEUTICAL CO., LTD, priority 2017, dated 2023).

Several values for one entry are separate records, joined by “and”; a condition that tells them apart may be missing. Equal entries are not always repeated.

Series [1] concerns full thickness skin wounds. In words: Acute Wound Model (Example 6). In kind it is in vivo, C57BL/6 mice. The conditions noted are these: for Hyp content (μg/mg tissue weight), single animals / Hyp content, Mean (n = 4): wound tissue. The procedure:
6-8 weeks old male C57BL/6 mice were supplied by Changzhou Cvens Experimental Animal Co. Ltd. Prior to any experiments being conducted, mice were housed under standardized conditions (at a constant temperature or 22±2° C., with alternating 12 hour periods of light and darkness), and were fed on a standard mouse diet with water, for about a week. […] The hair on the back was shaved by a baby hair shaver and depilated with cream. […] EMS skin biopsy punch (Electron Microscopy Sciences, P.O. […] Full thickness skin was removed and the depth reached the fascia. The wounds left open without suture. […] The model group was given same amount of normal saline. Recombinant Human Epidermal Growth Factor (rhEGF, Shanghai Haohai Biological Technology Co. Ltd, Shanghai, China) was purchased and prepared according to the manufacturer's instructions. Lyophilized rhEGF powder (100000 IU/vial) was dissolved in 20 mL of normal saline to make a solution with a 5000 IU/mL concentration. […] MedChemExpress, MCE China, Shanghai, China) was obtained in a powder form and was dissolved in ultrapure water to obtain solutions with concentrations as described in Table 22 (L, M and H indicate low, medium and high montelukast doses, respectively) Wounds were wrapped up with transparent dresser after drug administration. Photographs were taken for each wound every other day from Day 0. Photos were scanned into a computer, and wound areas calculated using ImageJ image analysis software (National Institutes of Health, […]). The unhealed wound area was expressed as a percentage of the original wound area: At/A0×100%, where A0 and At refer to the initial area at Day 0 and the wound area at the date of measurement (time t), respectively. […] Half of the tissue was preserved in 10% neutral buffered formalin (Nanchang […] Experimental Equipment Co., Ltd., Nanchang, […] Provence, China), and analyzed by histological embedding in paraffin wax, sectioning and staining. HE and Masson stained paraffin sections were analyzed under an optical microscope. Skin regeneration, fibroblastic proliferation, collagen regeneration scores and inflammation scores were estimated. The rest of the samples were stored at -80° C. for further analysis. […] The supernatant was collected, and the extracted protein was used for ELISA analysis using standard ELISA test kits and an ELISA reader (SH-1000 Hitachi, Japan). […] (Beijing, China).

The nature of series [2]: pH and stability of montelukast formulations. The conditions noted are these: PEG-based creams or ointments; not prone to oxidation.

As to `CC(C)(O)c1ccccc1CC[C@@H](SCC1(CC(=O)O)CC1)c1cccc(/C=C/c2ccc3ccc(Cl)cc3n2)c1` [Mon, Montelukast sodium], the “remaining wound area versus the initial wound” value stood at 76.11 ± 6.40% in series [1] (Day 2, Mon H 200 μg/wound); 78.41 ± 9.51% in series [1] (Day 2, Mon L 50 μg/wound once daily topically); 79.97 ± 11.79% in series [1] (Day 2, Mon M 100 μg/wound); 48.60 ± 6.49% in series [1] (Day 4, Mon H 200 μg/wound); 57.59 ± 11.54% in series [1] (Day 4, Mon L 50 μg/wound); 55.09 ± 8.83% in series [1] (Day 4, Mon M 100 μg/wound). The “remaining wound area versus the initial wound” value was 29.13 ± 6.16% in series [1] (Day 6, Mon H 200 μg/wound); 27.53 ± 3.76% in series [1] (Day 6, Mon L 50 μg/wound); 28.51 ± 1.03% in series [1] (Day 6, Mon M 100 μg/wound); 14.59 ± 3.04% in series [1] (Day 8, Mon H 200 μg/wound); 14.08 ± 2.85% in series [1] (Day 8, Mon L 50 μg/wound); 13.87 ± 3.51% in series [1] (Day 8, Mon M 100 μg/wound). Besides, the “remaining wound area versus the initial wound” value came to 2.48 ± 3.43% in series [1] (Day 12, Mon H 200 μg/wound); 1.15 ± 2.29% in series [1] (Day 12, Mon L 50 μg/wound); 2.15 ± 3.73% in series [1] (Day 12, Mon M 100 μg/wound). The “improvement rate (wound healing)” value in series [1] (Day 4, Mon H 200 μg/wound) is recorded as “about 39%”. Further, the “Hyp content (μg/mg tissue weight), single animals” value was 4.62 μg/mg tissue weight and 5.83 μg/mg tissue weight and 3.99 μg/mg tissue weight and 4.64 μg/mg tissue weight in series [1] (Mon H 200 μg/wound); 4.65 μg/mg tissue weight and 4.41 μg/mg tissue weight and 6.71 μg/mg tissue weight and 6.05 μg/mg tissue weight in series [1] (Mon L 50 μg/wound); 4.94 μg/mg tissue weight and 4.18 μg/mg tissue weight and 6.80 μg/mg tissue weight and 4.98 μg/mg tissue weight in series [1] (Mon M 100 μg/wound). The “Hyp content, Mean (n = 4)” value in series [1] (Mon H 200 μg/wound) stood at 4.77 μg/mg tissue weight; in series [1] (Mon L 50 μg/wound), 5.46 μg/mg tissue weight; in series [1] (Mon M 100 μg/wound), 5.23 μg/mg tissue weight. For the same compound, the “stability of formulation (in words)” value in series [2] was “surprisingly stable”.
